US20100093872A1, “STABLE AQUEOUS FORMULATIONS OF WATER INSOLUBLE OR POORLY SOLUBLE DRUGS” (Erimos Pharmaceuticals LLC, priority 2008, published 2010)
Values after ≈ are worked out from the molar mass of the structure shown. Read-outs that look alike come from different tables or passages of the source. Each block holds one compound with its values, some of them ahead of it.

Columns and labels:
[1] = cited from earlier work
[2] = Achievable terameprocol concentration in HPβCD formulations without co-solvent (bench-scale development); format: physicochemical
Experimental: The inventors of the present invention have made the surprising discovery that terameprocol can be formulated in cyclodextrins without the need for elaborate chemical solvent matrices and that lead to increases in the solubility of water insoluble drugs through the formation of a stable inclusion complex. […] Details of this will be discussed later.
Bench-top (10 mL) to 5 L scale development studies were performed to remove PEG 300 from terameprocol/HPβCD formulations. Conclusions from the bench scale experiments were (a) 7 mg/mL is the maximum achievable terameprocol concentration in an IV formulation containing 30-40% HPβCD (b) incorporating the drug at high temperatures (80° C. or greater) is an important step in forming the inclusion complex (c) high mechanical energy must be provided when cooling the complex to approximately ambient condition once formed. There were differences in equipment used at the 10 mL vs. 5 L scale. The 10 mL scale utilized glass beakers with a sonicator for incorporation, while the 5 L experiments were conducted with a 10 L stainless steel jacketed vessel equipped with a recirculating heating bath, overhead air powered blade mixer and an in-line homogenizer.

physchem [3] = format: physicochemical; details: organic solvent or mixture, thermodynamic from solid
Experimental: The solubility of terameprocol was tested in various solvents and dispersed systems. An excess of the solid API (20-50 mg) was shaken with 1 mL of a given solvent overnight (˜16 hr) at room temperature on a gyratory shaker at maximum speed. The samples were filtered through 0.45 μm PVDF filter. The filtrates were diluted to the working linear range (0.06-0.1 mg/mL) of the UV-Vis method appropriately in acetonitrile and analyzed for terameprocol concentration using a UV-Vis spectrophotometer. The equation of the standard curve was y=16.70x+0.016 with a R^2=0.999 monitored at 281 nm.
Solubility in PEG 300 increased with increasing temperature with the value being greater than 600 mg/mL at 95° C.

[4] = Stability of terameprocol/HPβCD 5 L formulation with NaCl and after autoclaving (precipitation); format: physicochemical
Experimental: The 5 L experiments were conducted to (a) explore the acceptable temperature range indicated in ‘b’ above required for forming terameprocol cyclodextrin complexes, (b) evaluate the stability of terameprocol/HPβCD upon autoclaving: 15 minutes vs. 30 minutes at 121° C., (c) evaluate the compatibility of terameprocol/HPβCD with 0.5% (w/v) sodium chloride (NaCl), and (d) develop a process which could be scaled to the next engineering size of 60 L. The acceptable temperature required for complexation of terameprocol and cyclodextrin (HPβCD) was determined to be above the melting point of terameprocol (>104° C.). The resulting terameprocol/HPβCD formulation was stable for 4 weeks at room temperature (RT), 4 weeks under refrigerated conditions, and 2 weeks under accelerated conditions (40° C.) for all sample types evaluated: non-autoclaved, autoclaved up to 30 minutes, and upon spiking with NaCl as shown in Table 2. The compatibility of terameprocol/HPβCD with NaCl supports flushing of the IV lines with 0.9% Saline to keep lines patent if required.

[5] = Accelerated stability of 60 L lot terameprocol/HPβCD samples; format: physicochemical; details: 40° C/75% RH for 1 month; 60 L lots; no pH adjustment with/without homogenization, or pH 7 without homogenizer, with/without autoclaving
Experimental: The 5 L terameprocol formulation process was scaled up to 60 L lots. The 60 L lots were conducted to (a) evaluate the criticality of using an homogenizer to promote complexation of the terameprocol and HPβCD (b) evaluate the stability of the terameprocol/HPβCD complex upon pH adjustment after compounding using NaOH and/or HCl (c) investigate the stability after autoclaving up to 30 minutes at 121° C. of the non pH adjusted, pH adjusted, homogenized, and non-homogenized terameprocol samples (d) optimize the 5 L formulation process to 60 L in order to support a clinical scale-up to 373 L.
It was determined that with proper tank design using an aggressive mixer introduced enough energy into the system where the homogenizer may not be critical for complexation. Samples of terameprocol that had 1) no pH adjustment with and without homogenization and 2) pH adjusted to 7 with no homogenizer and with and without autoclaving were stable at the accelerated condition of 40° C/75% RH for 1 month.

physchem [6] = format: physicochemical; details: water
Experimental: Terameprocol is an extremely difficult drug to formulate because it is effectively insoluble in all of the commonly used aqueous media used for intravenous delivery of pharmaceuticals. Terameprocol's solubility in an aqueous solvent, at all pH's in water, 0.9% saline and 5% dextrose is <0.01 mg/mL, a level below the limit of quantitation of the RP-HPLC assay used for evaluation. In order to develop a formulation suitable for clinical use, it is preferred that the solubility of the drug be equal to or exceed 5 mg/mL. At concentrations below this limit, large volumes of solvent are required to deliver the drug. The extremely low solubility of terameprocol presents major formulation challenges using conventional formulation techniques such as the use of organic solvents, surfactants or extremes of pH. These conventional formulation approaches would require the administration of large concentrations of co-solvents and may render the solution viscous and/or difficult to handle during reconstitution in the bedside or pharmacy. […] The use of conventional approaches have met with limited success when formulating terameprocol for intravenous parenteral administration.

[7] = Chemical stability of terameprocol under stress (base, acid, heat, light, oxidizer, water); format: physicochemical; details: subjected to base, oxidizer, and water
From the text: Terameprocol is a small molecule with a molecular weight of 358.5 g/mol; it is hydrophobic, and non-ionic.

[8] = Determination of optimum temperature requirement (microscopic images of in-process samples); format: physicochemical; details: for crystals in in-process sample (microscopic image): HPβCD solution, homogenized
Experimental: A solution of HPβCD was prepared in a 5 L jacketed vessel and heated to aid in dissolution. Terameprocol was added slowly to the HPβCD solution. The in-line homogenizer was utilized and the temperature was maintained at 40° C. for 2 hours. […] The temperature was increased to 60° C. with homogenization and held for one hour. […] The temperature was increased to 80° C. under homogenization for 2 hours. It was noted that due to heating in a closed vessel, the system was slightly pressurized due to the increase in operating temperature. […] The experiment was repeated but the system was taken to temperature above the melting point (>104° C.) with homogenization in the same closed vessel. The vessel was then cooled and samples taken. […] It was concluded the optimum temperature requirement was that above the drug's melting point.

[9] = 0.5% w/v NaCl, autoclaved 15 min at 121° C.
[10] = 0.5% w/v NaCl, autoclaved 30 min at 121° C.
[11] = Unspiked, autoclaved 15 min at 121° C.
[12] = Unspiked, autoclaved 30 min at 121° C.

SMILES: CC(O)COC[C@H]1O[C@@H]2O[C@H]3[C@H](O)[C@@H](O)[C@@H](O[C@H]4[C@H](O)[C@@H](O)[C@@H](O[C@H]5[C@H](O)[C@@H](O)[C@@H](O[C@H]6[C@H](O)[C@@H](O)[C@@H](O[C@H]7[C@H](O)[C@@H](O)[C@@H](O[C@H]8[C@H](O)[C@@H](O)[C@@H](O[C@H]1[C@H](O)[C@H]2O)O[C@@H]8COCC(C)O)O[C@@H]7COCC(C)O)O[C@@H]6COCC(C)O)O[C@@H]5COCC(C)O)O[C@@H]4COCC(C)O)O[C@@H]3COCC(C)O (stereo partly drawn) [HPβCD, hydroxypropyl beta-cyclodextrin]
- stability during sterilization ([1]; 121° C. for 15 minutes): stable
- hydrolysis ([1]; extreme acidic conditions of pH 2 at 60° C.): slight hydrolysis
- hydrolysis ([1]; pH 4, at 40° C. after 24 hrs): No significant hydrolysis

- maximum achievable terameprocol concentration ([2]; IV formulation containing 30-40% HPβCD, no PEG 300, bench scale): 7 mg/mL
- concentration obtained on mixing with cyclodextrin in water without solvent ([2]; all temperatures below the melting point, or precipitation): ≤ 7000 µg/mL
- solubility at 16 h (physchem [3]; 25 °C, solubility in pharmaceutically relevant solvents): < 10 mg/mL
- solubility (physchem [3]; 40 °C): 10.1 mg/mL (≈ 28.2 mM)
- solubility (physchem [3]; 80 °C): > 400 mg/mL
- solubility (physchem [3]; 95 °C): > 600 mg/mL
- Precipitation 2-8° C. (4-weeks) [4, 9]: No
- Precipitation 40° C. (2-weeks) [4, 9]: No
- Precipitation RT (4-weeks) [4, 9]: No
- Terameprocol [4, 9]: 6.03 mg/mL
- Precipitation 2-8° C. (4-weeks) [4, 10]: No
- Precipitation 40° C. (2-weeks) [4, 10]: No
- Precipitation RT (4-weeks) [4, 10]: No
- Terameprocol [4, 10]: 5.77 mg/mL
- Precipitation 2-8° C. (4-weeks) ([4]; 0.5% w/v NaCl, not autoclaved): No
- Precipitation 40° C. (2-weeks) ([4]; 0.5% w/v NaCl, not autoclaved): No
- Precipitation RT (4-weeks) ([4]; 0.5% w/v NaCl, not autoclaved): No
- Terameprocol ([4]; 0.5% w/v NaCl, not autoclaved): 5.89 mg/mL
- Precipitation 2-8° C. (4-weeks) [4, 11]: No
- Precipitation 40° C. (2-weeks) [4, 11]: No
- Precipitation RT (4-weeks) [4, 11]: No
- Terameprocol [4, 11]: 5.76 mg/mL
- Precipitation 2-8° C. (4-weeks) [4, 12]: No
- Precipitation 40° C. (2-weeks) [4, 12]: No
- Precipitation RT (4-weeks) [4, 12]: No
- Terameprocol [4, 12]: 5.97 mg/mL
- Precipitation 2-8° C. (4-weeks) ([4]; Unspiked, not autoclaved): No
- Precipitation 40° C. (2-weeks) ([4]; Unspiked, not autoclaved): No
- Precipitation RT (4-weeks) ([4]; Unspiked, not autoclaved): No
- Terameprocol ([4]; Unspiked, not autoclaved): 5.80 mg/mL
- formulation stability [5]: stable
- solubility (physchem [6]): < 0.01 mg/mL
- stability / degradation [7]: does not degrade
- crystals in in-process sample (microscopic image) ([8]; 40° C. for 2 hours (FIG. 6-A)): numerous terameprocol crystals present
- crystals in in-process sample (microscopic image) ([8]; 60° C. for one hour (FIG. 6-B)): presence of crystals was still evident
- crystal formation ([8]; processed above the melting point (>104° C.) with homogenization, immediately or after 4 weeks): no crystal formation
SMILES: COc1ccc(C[C@@H](C)[C@@H](C)Cc2ccc(OC)c(OC)c2)cc1OC [terameprocol, tetra-o-methyl nordihydroguaiaretic acid]
- crystals in in-process sample (microscopic image) ([8]; 80° C. for 2 hours (FIG. 6-C)): significant reduction in crystal formation
